Laboratory results as given in ChEMBL document CHEMBL3885861, “Open TG-GATES”.

Organism: Rattus norvegicus
Experiment: Open TG-GATES - Regimen: Single
Format: toxicity, organism-based, Sprague-Dawley
Parameters: regimen Single, gender Male, age 6 weeks
Settings: in vivo, po, 40 mg/kg, route gavage, dose level Low; for APTT / Bas / Eos / Fbg / Hb / Ht / Lym / MCH / MCHC / MCV / Mono / Neu / PT / Plat / RBC / Ret / WBC: tissue Blood; for KIDNEY_L / KIDNEY_R / KIDNEY_TOTAL: tissue Kidney; for LIVER: tissue Liver; for A/G / ALP / ALT / AST / BUN / CRE / Ca / Cl / DBIL / GLC / IP / K / LDH / Na / PL / RALB / TBIL / TC / TG / TP / gamma-GTP: tissue Plasma

Compound COc1ccc(Cc2nccc3cc(OC)c(OC)cc23)cc1OC [PAPAVERINE] has a TERMINAL_BW (3 h) of 231 g, an APTT (3 h) of 22.7 s and a Bas (3 h) of 0%. The Eos (3 h) was 0.8%, the Fbg (3 h) was 308.6 mg/dL and the Hb (3 h) was 13.3 g/dL. The Ht (3 h) was 39.9%, the Lym (3 h) was 77% and the MCH (3 h) was 20.8 pg. The MCHC (3 h) was 33.4%, the MCV (3 h) was 62.1 fL and the Mono (3 h) was 2.2%. For the same compound, the Neu (3 h) was 19%, the PT (3 h) was 15.5 s and the Plat (3 h) was 111.6 x10_4/uL. For the same compound, the RBC (3 h) was 643.2 x10_4/ul, the Ret (3 h) was 8.1% and the WBC (3 h) was 104.1 x10_2/uL. The KIDNEY_L (3 h) was 0.9 g, the KIDNEY_R (3 h) was 0.9 g and the KIDNEY_TOTAL (3 h) was 1.9 g. The LIVER (3 h) was 10.4 g, the A/G (3 h) was 1.2 and the ALP (3 h) was 1691.2 IU/L. The ALT (3 h) was 41.2 IU/L, the AST (3 h) was 79 IU/L and the BUN (3 h) was 13.4 mg/dL. The CRE (3 h) was 0.1 mg/dL, the Ca (3 h) was 11.1 mg/dL and the Cl (3 h) was 107.2 meq/L. It also gave a DBIL (3 h) of 0 mg/dL, a GLC (3 h) of 179 mg/dL and an IP (3 h) of 7.7 mg/dL. It also gave a K (3 h) of 4 meq/L, an LDH (3 h) of 190.4 IU/L and a Na (3 h) of 141.6 meq/L. For the same compound, the PL (3 h) was 135 mg/dL, the RALB (3 h) was 3 g/dL and the TBIL (3 h) was 0.006 mg/dL. It also gave a TC (3 h) of 75.2 mg/dL, a TG (3 h) of 65.6 mg/dL and a TP (3 h) of 5.4 g/dL. For the same compound, the gamma-GTP (3 h) was 1.6 IU/L, the TERMINAL_BW (6 h) was 221.8 g and the APTT (6 h) was 21.2 s. It also gave a Bas (6 h) of 0%, an Eos (6 h) of 0.8% and a Fbg (6 h) of 322.4 mg/dL. The Hb (6 h) was 13.4 g/dL, the Ht (6 h) was 39.9% and the Lym (6 h) was 78.2%. It also gave an MCH (6 h) of 20.7 pg, an MCHC (6 h) of 33.7% and an MCV (6 h) of 61.5 fL. The Mono (6 h) was 2.8%, the Neu (6 h) was 16.8% and the PT (6 h) was 15.8 s. It also gave a Plat (6 h) of 129.6 x10_4/uL, an RBC (6 h) of 647.8 x10_4/ul and a Ret (6 h) of 7.6%. For the same compound, the WBC (6 h) was 105.5 x10_2/uL, the KIDNEY_L (6 h) was 1 g and the KIDNEY_R (6 h) was 1 g. The KIDNEY_TOTAL (6 h) was 1.9 g, the LIVER (6 h) was 9.4 g and the A/G (6 h) was 1.2. The ALP (6 h) was 1422 IU/L, the ALT (6 h) was 36.2 IU/L and the AST (6 h) was 72.4 IU/L. The BUN (6 h) was 10.6 mg/dL, the CRE (6 h) was 0.1 mg/dL and the Ca (6 h) was 11.1 mg/dL. For the same compound, the Cl (6 h) was 106.8 meq/L, the DBIL (6 h) was 0.002 mg/dL and the GLC (6 h) was 179.8 mg/dL. The IP (6 h) was 8.9 mg/dL, the K (6 h) was 4.3 meq/L and the LDH (6 h) was 161.2 IU/L. For the same compound, the Na (6 h) was 140.6 meq/L, the PL (6 h) was 124.6 mg/dL and the RALB (6 h) was 3 g/dL. The TBIL (6 h) was 0.012 mg/dL, the TC (6 h) was 71.4 mg/dL and the TG (6 h) was 64 mg/dL. It also gave a TP (6 h) of 5.4 g/dL, a gamma-GTP (6 h) of 2.2 IU/L and a TERMINAL_BW (9 h) of 221.9 g. It also gave an APTT (9 h) of 21 s, a Bas (9 h) of 0% and an Eos (9 h) of 1%. For the same compound, the Fbg (9 h) was 325 mg/dL, the Hb (9 h) was 13.5 g/dL and the Ht (9 h) was 40.5%. For the same compound, the Lym (9 h) was 78.6%, the MCH (9 h) was 20.4 pg and the MCHC (9 h) was 33.4%. For the same compound, the MCV (9 h) was 61.2 fL, the Mono (9 h) was 3% and the Neu (9 h) was 16.6%. It also gave a PT (9 h) of 15.4 s, a Plat (9 h) of 114.2 x10_4/uL and an RBC (9 h) of 661.8 x10_4/ul. The Ret (9 h) was 7.6%, the WBC (9 h) was 78.8 x10_2/uL and the KIDNEY_L (9 h) was 1 g. It also gave a KIDNEY_R (9 h) of 1 g, a KIDNEY_TOTAL (9 h) of 1.9 g and an LIVER (9 h) of 9.4 g. The A/G (9 h) was 1.3, the ALP (9 h) was 1463.2 IU/L and the ALT (9 h) was 37 IU/L. For the same compound, the AST (9 h) was 70.2 IU/L, the BUN (9 h) was 11 mg/dL and the CRE (9 h) was 0.1 mg/dL. The Ca (9 h) was 11.1 mg/dL, the Cl (9 h) was 107.4 meq/L and the DBIL (9 h) was 0 mg/dL. For the same compound, the GLC (9 h) was 183.6 mg/dL, the IP (9 h) was 9.2 mg/dL and the K (9 h) was 4 meq/L. For the same compound, the LDH (9 h) was 150.2 IU/L, the Na (9 h) was 140.6 meq/L and the PL (9 h) was 133.6 mg/dL. It also gave an RALB (9 h) of 3 g/dL, a TBIL (9 h) of 0.02 mg/dL and a TC (9 h) of 73.2 mg/dL. It also gave a TG (9 h) of 69.8 mg/dL, a TP (9 h) of 5.4 g/dL and a gamma-GTP (9 h) of 1.6 IU/L. It also gave a TERMINAL_BW (24 h) of 234.3 g, an APTT (24 h) of 21.8 s and a Bas (24 h) of 0%. For the same compound, the Eos (24 h) was 0.8%, the Fbg (24 h) was 309.2 mg/dL and the Hb (24 h) was 13.5 g/dL. For the same compound, the Ht (24 h) was 40.7%, the Lym (24 h) was 82.6% and the MCH (24 h) was 21.3 pg. For the same compound, the MCHC (24 h) was 33.3%, the MCV (24 h) was 63.9 fL and the Mono (24 h) was 2.4%. It also gave a Neu (24 h) of 13.2%, a PT (24 h) of 16.3 s and a Plat (24 h) of 114.1 x10_4/uL. For the same compound, the RBC (24 h) was 636.4 x10_4/ul, the Ret (24 h) was 7.1% and the WBC (24 h) was 90.3 x10_2/uL. It also gave a KIDNEY_L (24 h) of 1 g, a KIDNEY_R (24 h) of 1 g and a KIDNEY_TOTAL (24 h) of 2 g. For the same compound, the LIVER (24 h) was 10.8 g, the A/G (24 h) was 1.3 and the ALP (24 h) was 1546.4 IU/L. For the same compound, the ALT (24 h) was 47 IU/L, the AST (24 h) was 79 IU/L and the BUN (24 h) was 16.2 mg/dL. For the same compound, the CRE (24 h) was 0.1 mg/dL, the Ca (24 h) was 10.6 mg/dL and the Cl (24 h) was 107.4 meq/L. For the same compound, the DBIL (24 h) was 0 mg/dL, the GLC (24 h) was 195.4 mg/dL and the IP (24 h) was 6.9 mg/dL. For the same compound, the K (24 h) was 4.4 meq/L, the LDH (24 h) was 207.6 IU/L and the Na (24 h) was 142.8 meq/L. For the same compound, the PL (24 h) was 126.6 mg/dL, the RALB (24 h) was 3.1 g/dL and the TBIL (24 h) was 0.004 mg/dL. It also gave a TC (24 h) of 67.6 mg/dL, a TG (24 h) of 123 mg/dL and a TP (24 h) of 5.4 g/dL. The gamma-GTP (24 h) was 1.2 IU/L.
